Peptide text beside a SMILES is read from it.
Experiments:
Canis familiaris [1] = species on record: Canis familiaris; experiment: In vitro inhibition of ADP-induced platelet aggregation in canine platelet rich plasma (PRP); type: functional; settings: Canis lupus familiaris
[2] = In vitro inhibition of ADP-induced platelet aggregation in human platelet rich plasma (PRP); type: functional
[3] = In vitro inhibition of ADP-induced platelet aggregation in platelet rich plasma (PRP); type: functional
Canis familiaris [4] = species on record: Canis familiaris; experiment: In vitro inhibition of ADP-induced platelet aggregation in canine platelet rich plasma (PRP); Inactive; type: functional, Canis lupus familiaris

Row | IC50 (Canis familiaris [1]) | IC50 [2] | IC50 [3] | IC50 (Canis familiaris [4]) | SMILES
1 | 53 nM | 42 nM |  |  | N=C(N)c1ccc(CCCCC(=O)N[C@@H](CC(=O)O)C(=O)N[C@@H](Cc2ccccc2)C(=O)O)cc1
2 | 82 nM | 90 nM |  |  | N=C(N)c1ccc(/C=C/CCC(=O)N[C@@H](CC(=O)O)C(=O)N[C@@H](Cc2ccccc2)C(=O)O)cc1
3 |  |  | 90000 nM |  | N=C(N)NCCC[C@H](N)C(=O)NCC(=O)N[C@@H](CC(=O)O)C(=O)N[C@@H](Cc1ccccc1)C(=O)O (H-RGDF-OH)
4 | 180 nM |  |  |  | N=C(N)c1ccc(CC(=O)CCC(=O)N[C@@H](CC(=O)O)C(=O)N[C@@H](Cc2ccccc2)C(=O)O)cc1
5 | 90 nM | 120 nM |  |  | N=C(N)c1ccc(C#CCCC(=O)N[C@@H](CC(=O)O)C(=O)N[C@@H](Cc2ccccc2)C(=O)O)cc1
6 | 5800 nM |  |  |  | N=C(N)c1cccc(CCCCCC(=O)N[C@@H](CC(=O)O)C(=O)N[C@@H](Cc2ccccc2)C(=O)O)c1
7 | 4300 nM | 3200 nM |  |  | N=C(N)c1cccc(/C=C/CCCC(=O)N[C@@H](CC(=O)O)C(=O)N[C@@H](Cc2ccccc2)C(=O)O)c1
8 |  |  |  | Not Active | N=C(N)c1ccc(CCCC(=O)N[C@@H](CC(=O)O)C(=O)N[C@@H](Cc2ccccc2)C(=O)O)cc1
